# Patent publication US20220331309A1, “PHARMACEUTICAL COMPOSITION FOR TREATING INSOMNIA” (priority 2019, published 2022)
# Key:
# [1] = Prediction of pharmacokinetics of 2.5 mg lemborexant in combination with agent moderately or strongly inhibiting CYP3A (Test Example 1-3, dose proportionality); type: in vivo, human; details: for AUC(0-inf) / Cmax: both sexes, human, plasma, oral; for AUC(0-inf): read-out: mean AUC (0-inf) achieved; for Cmax: read-out: mean Cmax achieved
# Experimental: The results are shown in Tables 3 and 4 with the actually measured values of the single administration of 10 mg lemborexant in Sections (1-1) and (1-2) above.
# [2] = Pharmacokinetics of lemborexant alone and in combination with fluconazole in healthy adults (Test Example 1-1); details: for Cmax (geometric mean): healthy adults
# Experimental: A single dose of 10 mg lemborexant was administered to fourteen healthy adults (males and females, 18 to 55 years old) (single administration of lemborexant); 200 mg of fluconazole was administered one time per day (two times only on Day 11) from Day 11 to Day 26 where the single administration of the lemborexant was defined as Day 1; and a single dose of 10 mg lemborexant was administered on Day 15 (administration of lemborexant in combination with fluconazole). The concentrations of lemborexant in the plasma during the single administration of lemborexant and during the administration of lemborexant in combination with fluconazole were measured with a high performance liquid chromatograph/tandem mass spectrometry (hereinafter, referred to as “LC-MS/MS”) under the following conditions to calculate the geometric means of the Cmax and the AUC (0-inf).
# (§1) HPLC (pump: LC-10ADvp or LC 20AD, Autosampler SLL 20ACHT, SHIMADZU Corporation) mass spectrometer (API5000 or API5500, AB Sciex)
# (§2) A 10 μL solution of an internal standard substance (lemborexant labeled with deuterium) was added to 100 μL of a human plasma, and the resulting mixture was convened into a basic condition with 10 μL of aqueous ammonia and was subjected to liquid-liquid extraction with methyl tert-butyl ether (MTBE). After stirring (for about 10 minutes) and centrifugation (about 14000 rpm, for about 10 minutes) were performed, the upper layer was evaporated into dryness at 30° C. under a nitrogen stream, and was redissolved with 200 μL of a mixed solution (50/50, v/v) of 0.1% formic acid-containing acetonitrile/water to prepare a sample for LC-MS/MS.
# (§3) The measurement was performed in an MRM mode by positive detection of an electrospray ionization (ESI) method. […] A variety of parameters for AP15500/5500 Qtrap used are shown below. Ion spray Voltage: 5500 v, Curtain Gas 40, CAD 8, Gas1 70, Gas2 70, DP100, Dwell time 250 (parameters are not limited to these)
# (§4) The lemborexant concentration in the plasma was calculated using an internal standard calibration curve created through inverse regression according to the method of least squares generated from the ratio of the peak area of lemborexant to that of the internal standard substance.
# [3] = Pharmacokinetics of lemborexant alone and in combination with itraconazole in healthy adults (Test Example 1-2); details: for Cmax (geometric mean): healthy adults
# Experimental: as §1, §2, §3, §4
# A single dose of 10 mg lemborexant was administered to fifteen healthy adults (males and females, 21 to 55 years old) (single administration of lemborexant); 200 mg of itraconazole was administered one time per day from Day 15 to Day 34 where the single administration of lemborexant was defined as Day 1; and a single dose of 10 mg lemborexant was administered on Day 22 (administration of lemborexant in combination with itraconazole).
# [4] = Single dose administration test of lemborexant in healthy adults (Test Example 3); type: in vivo, human; details: for AUC(0-inf) / Cmax: human, plasma, oral
# Experimental: In 64 cases of healthy adults under a feed-deprived condition, the pharmacokinetics of lemborexant administered with single doses of 1, 2.5, 5, 10, 25, 50, 100, and 200 mg thereof was examined by a randomized, double-blinded, placebo-controlled, multi-stage single administration test. In each group, lemborexant was administered to six cases, and the placebo was administered to two cases.
# The transition of the mean lemborexant concentration in the plasma when single doses of 1, […], 10, 25, 50, 100, and 200 mg lemborexant were administered to the healthy adults is shown in FIG. 1.
# CYP3A = details: FDA guidance classification; cited from earlier work
# [5] = 2.5 mg lemborexant in combination with fluconazole
# [6] = 2.5 mg lemborexant in combination with itraconazole
# [7] = 2.5 mg lemborexant, lower to upper limit of 95% CI in combination with fluconazole
# [8] = 2.5 mg lemborexant, lower to upper limit of 95% CI in combination with itraconazole
# [9] = 10 mg lemborexant in combination with fluconazole
# [10] = both, human, plasma, oral, 10 mg
# [11] = combination with fluconazole vs single administration, 10 mg lemborexant
# [12] = single administration of 10 mg lemborexant, plasma
# [13] = 10 mg lemborexant in combination with itraconazole
# [14] = combination with itraconazole vs single administration, 10 mg lemborexant
# [15] = all administration groups, in average
smiles,measurement,setting,value
"Cc1ncc(OC[C@@]2(c3cccc(F)c3)C[C@H]2C(=O)Nc2ccc(F)cn2)c(C)n1 [lemborexant, (1R,2S)-2-(((2,4-dimethylpyrimidin-5-yl)oxy)methyl)-2-(3-fluorophenyl)-N-(5-fluoropyridin-2-yl)cyclopropanecarboxamide]","AUC(0-inf), predicted value (geometric mean)",[1]; [5],370 ng·h/mL
same,"Cmax, predicted value (geometric mean)",[1]; [5],22.1 ng/mL
same,predicted mean AUC (0-inf) lower than mean AUC (0-inf) of single 10 mg dose,[1]; [5],1.1%
same,predicted mean Cmax lower than mean Cmax of single 10 mg dose,[1]; [5],59.4%
same,"AUC(0-inf), predicted value (geometric mean)",[1]; [6],447 ng·h/mL
same,"Cmax, predicted value (geometric mean)",[1]; [6],18.9 ng/mL
same,predicted mean AUC (0-inf) higher than mean AUC (0-inf) of single 10 mg dose,[1]; [6],32%
same,AUC(0-inf),[1]; [7],308 to 445 ng·h/mL
same,Cmax,[1]; [7],18.1 to 26.9 ng/mL
same,AUC(0-inf),[1]; [8],374 to 533 ng·h/mL
same,Cmax,[1]; [8],17 to 21.1 ng/mL
same,Cmax,"[1]; 2.5 mg, 2.5 mg lemborexant with moderate or strong CYP3A inhibitor, lower 95% CI limit with itraconazole to upper 95% CI limit with fluconazole",17 to 26.9 ng/mL
same,AUC(0-inf),"[1]; 2.5 mg lemborexant with moderate or strong CYP3A inhibitor, lower 95% CI limit with fluconazole to upper 95% CI limit with itraconazole",308 to 533 ng·h/mL
same,increase of mean AUC (0-inf) compared to single administration,[2]; [9],317%
same,increase of mean Cmax compared to single administration,[2]; [9],62%
same,Cmax (geometric mean),"[2]; 10 mg lemborexant in combination with fluconazole 200 mg once per day, plasma",88.3 ng/mL
same,AUC(0-inf),[2]; [10],374 ng·h/mL
same,AUC(0-inf) ratio of (b) to (a),[2]; [11],4.17
same,Cmax ratio of (b) to (a),[2]; [11],1.62
same,Cmax (geometric mean),[2]; [12],54.4 ng/mL
same,increase of mean AUC (0-inf) compared to single administration,[3]; [13],270%
same,increase of mean Cmax compared to single administration,[3]; [13],36%
same,Cmax (geometric mean),"[3]; 10 mg lemborexant in combination with itraconazole 200 mg once per day, plasma",73.9 ng/mL
same,AUC(0-inf),[3]; [10],433 ng·h/mL
same,AUC(0-inf) ratio of (d) to (c),[3]; [14],3.70
same,Cmax ratio of (d) to (c),[3]; [14],1.36
same,Cmax (geometric mean),[3]; [12],54.3 ng/mL
same,exposure until 9 hours after administration as proportion of the AUC (0-inf),[4]; [15],about 45%
same,exposure until 9 hours after administration as proportion of the exposure until 24 hours,[4]; [15],about 75%
same,increase of geometric mean Cmax relative to dose,[4]; dose of 10 mg or more,slightly lower than the dose ratio
same,dose dependence of the mean AUC (0-24 h),[4]; examined dose range 1 to 200 mg,approximately dose proportionality
same,AUC(0-inf),"[4]; 5 mg, single administration of 5 mg lemborexant, healthy adults, read-out: AUC(0-inf), Geometric mean",146 ng·h/mL
same,AUC(0-inf),"[4]; 5 mg, single administration of 5 mg lemborexant, healthy adults, read-out: AUC(0-inf), Mean",149 ng·h/mL
same,AUC(0-inf),"[4]; 5 mg, single administration of 5 mg lemborexant, healthy adults, read-out: AUC(0-inf), Median",139 ng·h/mL
same,AUC(0-inf),"[4]; 5 mg, single administration of 5 mg lemborexant, healthy adults, read-out: AUC(0-inf), Minimum value",123 ng·h/mL
same,AUC(0-inf),"[4]; 5 mg, single administration of 5 mg lemborexant, healthy adults, read-out: AUC(0-inf), maximum value",209 ng·h/mL
same,Cmax,"[4]; 5 mg, single administration of 5 mg lemborexant, healthy adults, read-out: Cmax, Geometric mean",22.3 ng/mL
same,Cmax,"[4]; 5 mg, single administration of 5 mg lemborexant, healthy adults, read-out: Cmax, Mean",22.7 ng/mL
same,Cmax,"[4]; 5 mg, single administration of 5 mg lemborexant, healthy adults, read-out: Cmax, Median",21.9 ng/mL
same,Cmax,"[4]; 5 mg, single administration of 5 mg lemborexant, healthy adults, read-out: Cmax, Minimum value",17.2 ng/mL
same,Cmax,"[4]; 5 mg, single administration of 5 mg lemborexant, healthy adults, read-out: Cmax, maximum value",30 ng/mL
same,AUC(0-inf),"[4]; 5 mg, single dose of 5 mg lemborexant, read-out: AUC (0-inf), lower limit value of the 95% confidence interval",113 ng·h/mL
same,AUC(0-inf),"[4]; 5 mg, single dose of 5 mg lemborexant, read-out: AUC (0-inf), upper limit value of the 95% confidence interval",189 ng·h/mL
same,Cmax,"[4]; 5 mg, single dose of 5 mg lemborexant, read-out: Cmax, lower limit value of the 95% confidence interval",18.3 ng/mL
same,Cmax,"[4]; 5 mg, single dose of 5 mg lemborexant, read-out: Cmax, upper limit value of the 95% confidence interval",27.3 ng/mL
same,AUC(0-inf),"[4]; 10 mg, single administration of 10 mg lemborexant, healthy adults, read-out: AUC(0-inf), Geometric mean",299 ng·h/mL
same,AUC(0-inf),"[4]; 10 mg, single administration of 10 mg lemborexant, healthy adults, read-out: AUC(0-inf), Mean",311 ng·h/mL
same,AUC(0-inf),"[4]; 10 mg, single administration of 10 mg lemborexant, healthy adults, read-out: AUC(0-inf), Median",314 ng·h/mL
same,AUC(0-inf),"[4]; 10 mg, single administration of 10 mg lemborexant, healthy adults, read-out: AUC(0-inf), Minimum value",188 ng·h/mL
same,AUC(0-inf),"[4]; 10 mg, single administration of 10 mg lemborexant, healthy adults, read-out: AUC(0-inf), maximum value",409 ng·h/mL
same,Cmax,"[4]; 10 mg, single administration of 10 mg lemborexant, healthy adults, read-out: Cmax, Geometric mean",32 ng/mL
same,Cmax,"[4]; 10 mg, single administration of 10 mg lemborexant, healthy adults, read-out: Cmax, Mean",36 ng/mL
same,Cmax,"[4]; 10 mg, single administration of 10 mg lemborexant, healthy adults, read-out: Cmax, Median",31.4 ng/mL
same,Cmax,"[4]; 10 mg, single administration of 10 mg lemborexant, healthy adults, read-out: Cmax, Minimum value",16.9 ng/mL
same,Cmax,"[4]; 10 mg, single administration of 10 mg lemborexant, healthy adults, read-out: Cmax, maximum value",62.1 ng/mL
same,AUC(0-inf),"[4]; 10 mg, single dose of 10 mg lemborexant, read-out: AUC (0-inf), lower limit value of the 95% confidence interval",216 ng·h/mL
same,AUC(0-inf),"[4]; 10 mg, single dose of 10 mg lemborexant, read-out: AUC (0-inf), upper limit value of the 95% confidence interval",414 ng·h/mL
same,Cmax,"[4]; 10 mg, single dose of 10 mg lemborexant, read-out: Cmax, lower limit value of the 95% confidence interval",18.3 ng/mL
same,AUC(0-inf),"[4]; dose 5 to 10 mg, lower 95% CI limit Table 9 (5 mg) to upper 95% CI limit Table 4 (10 mg), read-out: mean AUC (0-inf) achieved",113 to 537 ng·h/mL
same,Cmax,"[4]; dose 5 to 10 mg, lower limit for 5 mg with weak CYP3A inhibitor to upper 95% CI limit Table 8 (10 mg), read-out: mean Cmax achieved",16.5 to 56 ng/mL
same,"Cmax, upper limit value of the 95% confidence interval",[4]; single dose of 10 mg lemborexant,56.0 ng/mL
same,elimination profile of plasma concentration after administration,"[4]; single doses 1 to 200 mg, healthy adults",biphasic elimination
"CCC(C)n1ncn(-c2ccc(N3CCN(c4ccc(OCC5COC(Cn6cncn6)(c6ccc(Cl)cc6Cl)O5)cc4)CC3)cc2)c1=O (stereo not shown) [Itraconazole, itraconazole]",Classification of CYP3A inhibiting action of drug used in combination,CYP3A,Strongly
OC(Cn1cncn1)(Cn1cncn1)c1ccc(F)cc1F [fluconazole],Classification of CYP3A inhibiting action of drug used in combination,CYP3A,moderately
